Experimental data taken from US20050239656A1, “Pyridine compounds or salts thereof and herbicides containing the same” (priority 2002, published 2005).

Tests used:
rice (var. Nihonbare) = assay: Test Example 3: paddy pot test, transplanted rice; type: in vivo, Oryza sativa L.; details: applied 4th day after transplantation, visually observed 21st day after application, 0 = non-treated, 100 = complete kill
Outline: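 Rice (2-leaf stage) was transplanted 3 cm deep into puddled, leveled paddy soil under 3–4 cm flooding. On day 4 after transplanting, diluted wettable powder or emulsifiable concentrate was pipetted onto the water at a predetermined active-ingredient dose. Growth control (0 = untreated, 100 = complete kill) was scored visually 21 days later.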

velvetleaf [1] = assay: Test Example 1: foliage treatment, upland pot test; type: in vivo, Abutilon theophrasti MEDIC.; details: observed 18th to 23rd day, 0 = non-treated, 100 = complete kill
Source text: (§1) Upland field soil was put into a 1/170,000 ha pot, and seed of various plants were sown. Then, when the plants reached predetermined leaf stages ((1) barnyardgrass: 1.3 to 2.8 leaf stages, (2) crabgrass: 1.0 to 2.8 leaf stages, (3) green foxtail: 1.3 to 2.6 leaf stages, (4) redroot pigweed: 0.1 to 1.2 leaf stages, (5) prickly sida: 0.1 to 1.2 leaf stages, (6) velvetleaf: 0.1 to 1.2 leaf stages, (7) tall morningglory: 0.1 to 1.5 leaf stages, (8) rice: 1.2 to 2.6 leaf stages, (9) wheat: 1.3 to 2.4 leaf stages, (10) corn, 2.1 to 3.2 leaf stages, (11) soybean: 0.1 to 0.4 leaf stage), a wettable powder or emulsifiable concentrate having the compound of the present invention formulated in accordance with a usual formulation method, was weighed so that the active ingredient would be a predetermined amount, and diluted with water in an amount of 500 L/ha. To the diluted solution, 0.1% (v/v) of agricultural spreader was added. The herbicide thus adjusted was applied by a small size sprayer for foliage treatment. On the 18th to 23rd days after the application of the herbicide, the growth of the respective plants was visually observed, and the herbicidal effects were evaluated by the growth controlling degrees (%) ranging from 0 (equivalent to the non-treated plot) to 100 (complete kill), whereby the results shown in Table 3, were obtained.

barnyardgrass [2] = assay: Test Example 3: paddy pot test, application under submerged conditions; type: in vivo, Echinochloa crus-galli L.; details: submerged application at 0.5 leaf stage, visually observed 14 days after application, 0 = non-treated, 100 = complete kill
Outline: (§2)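 Seeds were sown in flooded paddy soil (0.5–1 cm water), wapato tubers were planted 1–2 days later, and water was then held at 3–4 cm. Diluted wettable powder or emulsifiable concentrate was pipetted into the water at the 0.5 leaf or primary leaf stage. Growth control was visually scored at 14 days (0–100%).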

redroot pigweed [3] = assay: Test Example 1: foliage treatment, upland pot test; type: in vivo, Amaranthus retroflexus L.; details: active ingredient 1000 g/ha, observed 18th to 23rd day, 0 = non-treated, 100 = complete kill
Source text: as §1

prickly sida [4] = assay: Test Example 1: foliage treatment, upland pot test; type: in vivo, Sida spinosa L.; details: observed 18th to 23rd day, 0 = non-treated, 100 = complete kill
Source text: as §1

japanese ribbon wapato = assay: Test Example 3: paddy pot test, application under submerged conditions; type: in vivo, Sagittaria pygniaea; details: submerged application at primary leaf stage, visually observed 14 days after application, 0 = non-treated, 100 = complete kill
Outline: as §2

rice [5] = assay: Test Example 1: foliage treatment, upland pot test; type: in vivo, Oryza sativa L.; details: crop, observed 18th to 23rd day, 0 = non-treated, 100 = complete kill
Source text: as §1

barnyardgrass [6] = assay: Test Example 1: foliage treatment, upland pot test; type: in vivo, Echinochloa crus-galli L.; details: observed 18th to 23rd day, 0 = non-treated, 100 = complete kill
Source text: as §1

soybean [7] = assay: Test Example 1: foliage treatment, upland pot test; type: in vivo, Glycine max Merr.; details: crop, observed 18th to 23rd day, 0 = non-treated, 100 = complete kill
Source text: as §1

japanese bulrush = assay: Test Example 3: paddy pot test, application under submerged conditions; type: in vivo, Scirpus juncoides; details: submerged application at 0.5 leaf stage, visually observed 14 days after application, 0 = non-treated, 100 = complete kill
Outline: as §2

corn [8] = assay: Test Example 1: foliage treatment, upland pot test; type: in vivo, Zea mays L.; details: crop, observed 18th to 23rd day, 0 = non-treated, 100 = complete kill
Source text: as §1

rice [9] = assay: Test Example 2: soil surface treatment, upland pot test; type: in vivo, Oryza sativa L.; details: observed 20th to 28th day
Outline: (§3)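 Herbicidal effect is given as percent growth control, assessed by eye 20 to 28 days post-spray against untreated plants (0) and full kill (100). Treatment: soil-surface application one day after sowing, formulated product diluted in 1,500 L/ha water, upland soil, 1/170,000 ha pots.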

crabgrass [10] = assay: Test Example 1: foliage treatment, upland pot test; type: in vivo, Digitaria sanguinalis L.; details: active ingredient 500 g/ha, observed 18th to 23rd day, 0 = non-treated, 100 = complete kill
Source text: as §1

green foxtail [11] = assay: Test Example 1: foliage treatment, upland pot test; type: in vivo, Setaria viridis L.; details: observed 18th to 23rd day, 0 = non-treated, 100 = complete kill
Source text: as §1

prickly sida [12] = assay: Test Example 2: soil surface treatment, upland pot test; type: in vivo, Sida spinosa L.; details: observed 20th to 28th day
Outline: as §3

corn [13] = assay: as above; type: in vivo, Zea mays L.; details: observed 20th to 28th day
Outline: as §3

barnyardgrass [14] = assay: as above; type: in vivo, Echinochloa crus-galli L.; details: observed 20th to 28th day
Outline: as §3

soybean [15] = assay: as above; type: in vivo, Glycine max Merr.; details: observed 20th to 28th day
Outline: as §3

green foxtail [16] = assay: as above; type: in vivo, Setaria viridis L.; details: observed 20th to 28th day
Outline: as §3

crabgrass [17] = assay: as above; type: in vivo, Digitaria sanguinalis L.; details: observed 20th to 28th day
Outline: as §3

velvetleaf [18] = assay: as above; type: in vivo, Abutilon theophrasti MEDIC.; details: observed 20th to 28th day
Outline: as §3

redroot pigweed [19] = assay: as above; type: in vivo, Amaranthus retroflexus L.; details: observed 20th to 28th day
Outline: as §3

| SMILES | Growth controlling degree (%) Velvetleaf (velvetleaf [1]; active ingredient 1000 g/ha) | Growth controlling degree (%) Redroot pigweed (redroot pigweed [3]) | Growth controlling degree (%) Prickly sida (prickly sida [4]; active ingredient 1000 g/ha) | Growth controlling degree (%) Rice (rice [5]; active ingredient 1000 g/ha) | Growth controlling degree (%) Barnyardgrass (barnyardgrass [6]; active ingredient 1000 g/ha) | Growth controlling degree (%) Soybean (soybean [7]; active ingredient 1000 g/ha) | Growth controlling degree (%) Corn (corn [8]; active ingredient 1000 g/ha) | Growth controlling degree (%) Rice (rice (var. Nihonbare); active ingredient 250 g/ha) | Growth controlling degree (%) Rice (rice [9]; active ingredient 500 g/ha) | Growth controlling degree (%) Barnyardgrass (barnyardgrass [2]; active ingredient 250 g/ha) | Growth controlling degree (%) Prickly sida (prickly sida [12]; active ingredient 500 g/ha) | Growth controlling degree (%) Corn (corn [13]; active ingredient 500 g/ha) | Growth controlling degree (%) Barnyardgrass (barnyardgrass [14]; active ingredient 500 g/ha) | Growth controlling degree (%) Japanese ribbon wapato (japanese ribbon wapato; active ingredient 250 g/ha) | Growth controlling degree (%) Soyabean (soybean [15]; active ingredient 500 g/ha) | Growth controlling degree (%) Green foxtail (green foxtail [16]; active ingredient 500 g/ha) | Growth controlling degree (%) Crabgrass (crabgrass [17]; active ingredient 500 g/ha) | Growth controlling degree (%) Japanese bulrush (japanese bulrush; active ingredient 250 g/ha) | Growth controlling degree (%) Velvetleaf (velvetleaf [18]; active ingredient 500 g/ha) | Growth controlling degree (%) Redroot pigweed (redroot pigweed [19]; active ingredient 500 g/ha) | also measured |
| --- | --- | --- | --- | --- | --- | --- | --- | --- | --- | --- | --- | --- | --- | --- | --- | --- | --- | --- | --- | --- | --- |
| CC(C)C(c1cnccc1Cl)N(C)C(=O)Cc1ccc(F)c(F)c1 (stereo not shown) [I-73] | 90% | 60% | 85% | 30% | 40% | 70% | 0% |  |  |  |  |  |  |  |  |  |  |  |  |  | Growth controlling degree (%) Rice (rice (var. Nihonbare); active ingredient 125 g/ha): 0%; Growth controlling degree (%) Barnyardgrass (barnyardgrass [2]; active ingredient 125 g/ha): 98%; Growth controlling degree (%) Japanese ribbon wapato (japanese ribbon wapato; active ingredient 125 g/ha): 20%; Growth controlling degree (%) Japanese bulrush (japanese bulrush; active ingredient 125 g/ha): 90% |
| CC(C)C(c1cnccc1C(F)(F)F)N(C)C(=O)COc1ccc(F)cc1 (stereo not shown) [I-241] |  |  |  |  |  |  |  | 0% | 20% | 100% | 100% | 40% | 100% | 80% | 20% | 100% | 98% | 95% | 70% | 90% | Growth controlling degree (%) Velvetleaf (velvetleaf [1]; active ingredient 500 g/ha): 80%; Growth controlling degree (%) Crabgrass (crabgrass [10]): 95%; Growth controlling degree (%) Green foxtail (green foxtail [11]; active ingredient 500 g/ha): 70%; Growth controlling degree (%) Prickly sida (prickly sida [4]; active ingredient 500 g/ha): 80%; Growth controlling degree (%) Rice (rice [5]; active ingredient 500 g/ha): 20%; Growth controlling degree (%) Barnyardgrass (barnyardgrass [6]; active ingredient 500 g/ha): 70%; Growth controlling degree (%) Soybean (soybean [7]; active ingredient 500 g/ha): 80%; Growth controlling degree (%) Corn (corn [8]; active ingredient 500 g/ha): 30% |
| CCN(C(=O)Cc1cccc(C(F)(F)F)c1F)C(c1cnccc1C(F)(F)F)C(C)C (stereo not shown) [I-76] | 90% | 80% | 70% | 40% | 80% | 70% | 95% | 10% | 10% | 100% | 100% | 0% | 70% | 60% | 0% | 100% | 98% | 100% | 50% | 70% |  |
| CC(C)C(c1cnccc1C(F)(F)F)N(C)C(=O)Cc1ccccc1Cl (stereo not shown) [I-26] | 80% | 90% | 80% | 30% | 90% | 50% | 30% |  |  |  |  |  |  |  |  |  |  |  |  |  | Growth controlling degree (%) Rice (rice (var. Nihonbare); active ingredient 500 g/ha): 20%; Growth controlling degree (%) Rice (rice [9]; active ingredient 250 g/ha): 10%; Growth controlling degree (%) Green foxtail (green foxtail [11]; active ingredient 1000 g/ha): 70%; Growth controlling degree (%) Prickly sida (prickly sida [12]; active ingredient 250 g/ha): 70%; Growth controlling degree (%) Corn (corn [13]; active ingredient 250 g/ha): 40%; Growth controlling degree (%) Barnyardgrass (barnyardgrass [14]; active ingredient 250 g/ha): 80%; Growth controlling degree (%) Japanese ribbon wapato (japanese ribbon wapato; active ingredient 500 g/ha): 10%; Growth controlling degree (%) Soyabean (soybean [15]; active ingredient 250 g/ha): 0%; Growth controlling degree (%) Green foxtail (green foxtail [16]; active ingredient 250 g/ha): 80%; Growth controlling degree (%) Crabgrass (crabgrass [17]; active ingredient 250 g/ha): 80%; Growth controlling degree (%) Japanese bulrush (japanese bulrush; active ingredient 500 g/ha): 90%; Growth controlling degree (%) Velvetleaf (velvetleaf [18]; active ingredient 250 g/ha): 80%; Growth controlling degree (%) Redroot pigweed (redroot pigweed [19]; active ingredient 250 g/ha): 70% |
| CC(C)C(c1cnccc1Cl)N(C)C(=O)Cc1cccc(C(F)(F)F)c1F (stereo not shown) [I-74] | 90% | 60% | 80% | 20% | 50% | 30% | 30% |  |  |  |  |  |  |  |  |  |  |  |  |  |  |
| Cc1ccc(CC(=O)N(C)C(c2cnccc2C(F)(F)F)C(C)C)cc1 (stereo not shown) [I-94] |  |  |  |  |  |  |  | 0% | 10% | 100% | 100% | 10% | 100% | 90% | 0% | 100% | 100% | 98% | 80% | 98% |  |
| CCN(C(=O)Cc1cccc(C(F)(F)F)c1)C(c1cnccc1C(F)(F)F)C(C)C (stereo not shown) [I-75] | 90% | 60% | 80% | 20% | 70% | 30% | 10% | 0% | 0% | 100% | 80% | 10% | 100% | 40% | 0% | 100% | 100% | 70% | 70% | 40% |  |
